Experiments:
C1b domain of human PKCδ = target: T1, C1b domain of human PKCδ (Homo sapiens, UniProt Q05655); test: Competitive 3H-PDBu binding to C1b domain of PKCδ; conditions: Ki PKCδ, 3H-PDBu competition
T1 construct: Genes encoding C1b domains of human PKCα, δ, ε, θ, and PKD1 (PKCμ) were synthesized; made in house; host or cells: E. coli BL21(DE3)
Procedure: (§1) Compounds described in this disclosure were tested for binding affinity to C1b domain of PKC isoforms. Compound binding affinity to C1b domain of PKC isoforms was derived from competitive binding assay using radioactive tracer ^3H-PDBu and recombinant GST-C1b or full-length of human PKC proteins based on modified procedures from Methods in Molecular Biology, vol.
(§2) Genes encoding C1b domains of human PKCα, δ, ε, θ, and PKD1 (PKCμ) were synthesized and inserted into pGEX-2TK or pGEX-4T1 vectors for expression and production of GST-C1b proteins in E. coli BL21(DE3) via IPTG induction. The target proteins were purified by glutathione sepharose 4B and followed by ion exchange chromatography if needed to achieve purity >70%. Aliquots of the purified proteins were stored at −80 degree for binding assay (storage buffer: 20 mM Tris pH 8.0, 200 mM NaCl, 10% glycerol, 1 mM DTT).
(§3) The plate was incubated at 37° C. on a shaker at 300 rpm for 10 minutes and then put on ice for 20 minutes. […] The bottom of the filter plate was sealed and 50 μL of MicroScint-20 (PerkinElmer) cocktail was added to each well. ^3H-PDBu trapped in each well was counted using PerkinElmer MicroBeta2 Reader. Data were analyzed using GraphPad Prism5 with the model “log(inhibitor) vs. response-variable slope” to fit the IC50, and then IC50 was transformed to Ki using Cheng-Prusoff equation: Ki=IC50/(1+added radio ligand/Kd). Kd is the binding affinity of each protein preparation to ^3H-PDBu, determined experimentally.

C1b domain of human PKCα = target: T2, C1b domain of human PKCα (Homo sapiens, UniProt P17252); test: biochemical; type: binding; conditions: Ki PKCα, 3H-PDBu competition
T2 construct: Genes encoding C1b domains of human PKCα, δ, ε, θ, and PKD1 (PKCμ) were synthesized; made in house; host or cells: E. coli BL21(DE3)
Procedure: as §1, §2
The plate was incubated at 37° C. on a shaker at 300 rpm for 10 minutes and then put on ice for 20 minutes. […] The bottom of the filter plate was sealed and 50 μL of MicroScint-20 (PerkinElmer) cocktail was added to each well. ^3H-PDBu trapped in each well was counted using PerkinElmer MicroBeta2 Reader. […] Kd is the binding affinity of each protein preparation to ^3H-PDBu, determined experimentally.

[1] = target: T3, C1b domain of human PKD1 (PKCμ) (Homo sapiens, UniProt Q15139); test: biochemical; type: binding
T3 construct: Genes encoding C1b domains of human PKCα, δ, ε, θ, and PKD1 (PKCμ) were synthesized; made in house; host or cells: E. coli BL21(DE3)
T3 sequence (Q15139 270-320 limits assumed): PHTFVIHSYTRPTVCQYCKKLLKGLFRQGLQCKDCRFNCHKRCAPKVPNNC
Procedure: as §1, §2, §3

[2] = tested on: A549 non-small cell lung cancer cell line; test: Proliferation of A549 (CellTiter Glo); type: cell-based; conditions: Homo sapiens, A549, 96 h, read-out: IC50 μM (A549 Cell Line)
Procedure: The diterpenoid compounds were tested in A549, a non-small cell lung cancer cell line harboring a K-Ras activating mutation. Briefly, A549 cells at a density of 1,000 cells/well were seeded in 96-well plates and incubated at 37° C. for 24 hours. A series of different concentrations of compound stocks (500×) were prepared by 3-fold serial dilution in DMSO. These compounds were further diluted in culture media and then added to cells so that the final DMSO concentration was not exceeding 0.25%. After 96 hours of incubation, 50 μL of CellTiter Glo reagent (Promega) was added to each well and luminescence was measured after 10 minutes using EnVision (PerkinElmer). Luminescence from cells treated with DMSO alone was set as Max and % of inhibition was calculated as follows: Inhibition %=(Max−Sample value)/Max×100. Data was analyzed using XL-fit software (ID Business Solutions Ltd.) and IC50, relative IC50, and % of top inhibition was calculated. Some of the compounds in this disclosure were very potent in blocking proliferation of A549 lung cancer cells at low nM range. In addition, potency of inhibiting A549 proliferation correlated well with its binding affinity to PKCs for this series of compounds. In other words, higher affinity binders had stronger inhibitory effects on A549 proliferation. This further support the notion that activation, rather than inhibition, of certain PKC isoforms is required to block proliferation of cancer cells, some of which may harbor K-Ras mutations. This is in sharp contrast to previous literature and common belief that inhibition of PKC is necessary to block cancer cell growth (Kang, 2014, New Journal of Science, 2014:1-36). Data presented here is in agreement with recent findings that many loss-of-function but not gain-of-function mutations of PKC isoforms have been identified in many human cancers (Antal et al., 2015, Cell, 160:489-502).

C1b domain of human PKCθ = target: T4, C1b domain of human PKCθ (Homo sapiens, UniProt Q04759); test: Competitive 3H-PDBu binding to C1b domain of PKCθ
T4 construct: Genes encoding C1b domains of human PKCα, δ, ε, θ, and PKD1 (PKCμ) were synthesized; made in house; host or cells: E. coli BL21(DE3)
T4 sequence (Q04759 231-281 limits assumed): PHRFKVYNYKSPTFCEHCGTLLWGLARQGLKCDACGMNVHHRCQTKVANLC
Procedure: as §1, §2, §3

C1b domain of human PKCε = target: T5, C1b domain of human PKCε (Homo sapiens, UniProt Q02156); test: Competitive 3H-PDBu binding to C1b domain of PKCε
T5 construct: Genes encoding C1b domains of human PKCα, δ, ε, θ, and PKD1 (PKCμ) were synthesized; made in house; host or cells: E. coli BL21(DE3)
T5 sequence (Q02156 242-292 limits assumed): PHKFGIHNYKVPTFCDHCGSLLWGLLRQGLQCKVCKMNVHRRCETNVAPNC
Procedure: as §1, §2, §3

T1 sequence (Q05655 230-280 limits assumed): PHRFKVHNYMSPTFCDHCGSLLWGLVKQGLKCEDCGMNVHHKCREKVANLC

`CC1=C[C@H]2[C@@]3(O)[C@H](C)C[C@]4(OC(=O)[C@@H](N)Cc5c[nH]c6ccccc56)[C@H]([C@@H]3C=C(CO)C[C@]2(O)C1=O)C4(C)C` [Compound K101-C1340] was tested, and the Ki (C1b domain of human PKCδ) was 1 to 30 nM, the Ki (C1b domain of human PKCα) was 200 to 400 nM and the Ki [1] was 5 to 10 nM. For the same compound, the IC50 [2] was 10 to 30 µM.
For `CC1=C[C@H]2[C@@]3(O)[C@H](C)C[C@]4(OC(=O)[C@@H](N)CCCCCCCCc5ccccc5)[C@H]([C@@H]3C=C(CO)C[C@]2(O)C1=O)C4(C)C` [Compound K101-C136102], the Ki (C1b domain of human PKCδ) was 1 to 30 nM, the Ki (C1b domain of human PKCα) was 30 to 60 nM and the Ki [1] was < 5 nM. For the same compound, the Ki (C1b domain of human PKCθ) was < 5 nM, the IC50 [2] was 0.001 to 0.01 µM and the Ki (C1b domain of human PKCε) was 5 to 10 nM.
Work on `CC1=C[C@H]2[C@@]3(O)[C@H](C)C[C@]4(OC(=O)[C@@H](N)CC5CCC5)[C@H]([C@@H]3C=C(CO)C[C@]2(O)C1=O)C4(C)C` [Compound K101-C1325] yielded a Ki (C1b domain of human PKCδ) of 30 to 60 nM, a Ki (C1b domain of human PKCα) of 4000 to 6000 nM and a Ki [1] of 30 to 60 nM. The IC50 [2] was 1 to 2 µM.
With `CC1=C[C@H]2[C@@]3(O)[C@H](C)C[C@]4(OC(=O)C[C@H](N)Cc5ccccc5)[C@H]([C@@H]3C=C(CO)C[C@]2(O)C1=O)C4(C)C` [Compound K101-C1358] the Ki (C1b domain of human PKCδ) was 1 to 30 nM, the Ki (C1b domain of human PKCα) was 200 to 400 nM and the Ki [1] was 5 to 10 nM. The IC50 [2] was 1 to 2 µM.
With `CC1=C[C@H]2[C@@]3(O)[C@H](C)C[C@]4(OC(=O)[C@@H](O)Cc5ccccc5)[C@H]([C@@H]3C=C(CO)C[C@]2(O)C1=O)C4(C)C` [Compound K101-C1354] the Ki (C1b domain of human PKCδ) was 30 to 60 nM, the Ki (C1b domain of human PKCα) was 1000 to 2000 nM and the Ki [1] was 1 to 30 nM. The IC50 [2] was 0.2 to 0.6 µM.
For `CC1=C[C@H]2[C@@]3(O)[C@H](C)C[C@]4(OC(=O)CC5CC6(CNC6)C5)[C@H]([C@@H]3C=C(CO)C[C@]2(O)C1=O)C4(C)C` [Compound K101-C1306], the Ki (C1b domain of human PKCδ) was 100 to 200 nM, the Ki (C1b domain of human PKCα) was 1000 to 2000 nM and the Ki [1] was 1 to 30 nM. For the same compound, the Ki (C1b domain of human PKCθ) was 100 to 200 nM, the IC50 [2] was > 30 µM and the Ki (C1b domain of human PKCε) was 200 to 400 nM.
With `CC1=C[C@H]2[C@@]3(O)[C@H](C)C[C@]4(OC(=O)C(Cc5ccccc5)C(=O)O)[C@H]([C@@H]3C=C(CO)C[C@]2(O)C1=O)C4(C)C` (stereo partly shown) [Compound K101-C1353] the Ki (C1b domain of human PKCδ) was 400 to 800 nM, the Ki (C1b domain of human PKCα) was > 8000 nM and the Ki [1] was 4000 to 6000 nM. The IC50 [2] was 1 to 2 µM.
With `CC1=C[C@H]2[C@@]3(O)[C@H](C)C[C@]4(OC(=O)C5CC6(CNC6)C5)[C@H]([C@@H]3C=C(CO)C[C@]2(O)C1=O)C4(C)C` [Compound K101-C1305] the Ki (C1b domain of human PKCδ) was 400 to 800 nM, the Ki (C1b domain of human PKCα) was > 8000 nM and the Ki [1] was 100 to 200 nM. For the same compound, the Ki (C1b domain of human PKCθ) was 200 to 400 nM, the IC50 [2] was > 30 µM and the Ki (C1b domain of human PKCε) was 1000 to 2000 nM.
`CC1=C[C@H]2[C@@]3(O)[C@H](C)C[C@]4(OC(=O)CCc5c[nH]c6ncccc56)[C@H]([C@@H]3C=C(CO)C[C@]2(O)C1=O)C4(C)C` [Compound K101-C1322] showed a Ki (C1b domain of human PKCδ) of 30 to 60 nM, a Ki (C1b domain of human PKCα) of 800 to 1000 nM and a Ki [1] of 5 to 10 nM. For the same compound, the IC50 [2] was 2 to 5 µM.
With `CC1=C[C@H]2[C@@]3(O)[C@H](C)C[C@]4(OC(=O)C[C@H](N)c5ccccc5)[C@H]([C@@H]3C=C(CO)C[C@]2(O)C1=O)C4(C)C` [Compound K101-C1343] the Ki (C1b domain of human PKCδ) was 30 to 60 nM, the Ki (C1b domain of human PKCα) was 1000 to 2000 nM and the Ki [1] was 1 to 30 nM. It also gave an IC50 [2] of 1 to 2 µM.

Reference: patent publication US20220411362A1, “DITERPENOID COMPOUNDS THAT ACT ON PROTEIN KINASE C (PKC)” (K-Gen, Inc., priority 2019, published 2022)
